pEC50: −log10 of the molar value. Where a name gives a salt, the structure may show the parent alone.
Legend:
[1] = system: male ddy mice; assay: Toxicity test; type: in vivo; conditions: orally administered to 6-week old male ddy mice at 100 mg/kg
[2] = target: T1, human β3 (Homo sapiens, UniProt P13945); assay: Human β3-agonist activities (cAMP in transfected CHO cells); type: cell-based; conditions: CHO cells transfected with human β3 gene; for pEC50: cAMP quantitated by EIA after 30 minutes; for Emax: read-out: Intrinsic activity* (relative activities as compared with isoproterenol)
T1 construct: used as a probe to obtain the full length human β3 gene from a human genomic library; expressed in transfected cells; host or cells: CHO (Chinese hamster ovary) cells, pcDNA3 vector
T1 sequence (P13945 whole entry): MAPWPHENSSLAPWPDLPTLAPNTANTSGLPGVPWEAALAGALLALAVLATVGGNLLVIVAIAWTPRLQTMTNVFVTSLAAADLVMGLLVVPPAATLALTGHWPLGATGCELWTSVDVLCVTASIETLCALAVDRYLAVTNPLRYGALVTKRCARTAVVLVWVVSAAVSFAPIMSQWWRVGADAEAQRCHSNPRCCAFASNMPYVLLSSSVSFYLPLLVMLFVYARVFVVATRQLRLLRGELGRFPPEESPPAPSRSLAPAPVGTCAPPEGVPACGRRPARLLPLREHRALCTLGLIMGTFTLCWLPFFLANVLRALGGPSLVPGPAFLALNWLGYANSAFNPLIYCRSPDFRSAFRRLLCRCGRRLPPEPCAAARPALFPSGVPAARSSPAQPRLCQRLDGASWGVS
Protocol: Human β3-agonist activities were determined using CHO (Chinese hamster ovary) cells transfected with pcDNA3 (mfd. by Invitrogen) to which human β3 gene had been inserted. Human β3 fragment was first obtained from human adipose tissue cDNA (mfd. by Clonetech) by PCR using the primer of β3 (Krief, et al., J. Clin. Invest., vol. 91, pp. 344-349 (1993)). The human β3 fragment thus obtained was used as a probe to obtain the full length human β3 gene from a human genomic library (mfd. by Clonetech). The above cells were cultured in a Ham F-12 medium supplemented with 10% fetal bovine serum, 400 μg/mL geneticin (Gibco BRL), 100 U/mL penicillin and 100 μg/mL streptomycin. After placing these cells (5×10^5) into a 6-well plate and culturing them for 24 hours, they were allowed to stand on a serum-free Ham F-12 medium for 2 hours. The compound was first dissolved in DMSO, diluted to a concentration of 10^−6 M with Ham F-12 supplemented with 1 mM isobutylmethylxanthine and 1 mM ascorbic acid, and then added to the cells. After the cells were cultured for 30 minutes, the medium was removed, followed by addition of 0.5 mL of 1 N NaOH. The medium was allowed to stand for 20 minutes and then 0.5 mL of 1 N acetic acid was added to the medium. The medium was stirred and centrifuged, followed by quantitating cAMP with cAMP EIA kit (mfd. by Cayman). With respect to eight compounds among the compounds described in Examples, their relative activities (%) as compared with isoproterenol were indicated in Table 3. Isoproterenol was purchased from RBI (Research Biochemicals International). The results from Table 3 indicate that the compounds of the present invention have human β3-agonist activities.

[3] = system: transgenic mouse expressing human β3; assay: Thermogenesis in transgenic mouse expressing human β3; type: in vivo; conditions: orally administered to transgenic mice, 3 to 10 mg/kg
Excerpt: Ito, et al. prepared a replacement mouse expressing human β3 in its brown fat by introducing human β3 gene into a mouse whose mouse β3 gene had been knocked out (Ito, et al., Diabetes, vol. 47, pp. 1464-1471 (1998)). A compound of the present invention can be tested for antiobestic activity and antidiabetic activity using a transgenic mouse according to the following procedures.
The thermogenesis can be measured with OXYMAX System (Columbus) according to the method reported by Largis et al. (Drug Development Research, vol. 32, pp. 69-76 (1994)). According to this device, the amount of thermogenesis can be obtained by calculating the calories based on the amount of oxygen consumed and the amount of carbon dioxide generated. After the administration of a medicinal substance, the measurements are carried out for 120 minutes (15 points). The average of the measured values obtained for the latter […] (10 points) is converted into a value per body weight to give the amount of thermogenesis. When a test by repetitive administrations is carried out, a medicinal substance may be administered at a dose once daily, twice daily or the like. The duration of administration may be 1 week, 2 weeks or more. In a test by repetitive administrations, body weight, blood glucose level and insulin level can be monitored with the passage of time as the method of Largis et al. (Drug Development Research, vol. 32, pp. 69-76 (1994). It is also possible that after the completion of the administration, the animal is anatomized to measure the weight of fat tissue or to prepare a section followed by a microscopic examination. Further, the expression level of UCP-1 can be examined according to the method reported by Nagase et al. (J. Clin. Invest., vol. 97, pp. 2898-2904 (1996)).
The present compounds were orally administered to transgenic mice in an amount of from 3 to 10 mg/kg to measure their thermogenesis.

[4] = cAMP, relative to isoproterenol

Compound	pEC50 [2]	Emax [2, 4]	Mortality [1]	Intrinsic activity* (relative activities as compared with isoproterenol) [2, 4]	Increase of thermogenesis as compared with the control group [3]
Cc1[nH]c2cc(OCCNCC(O)c3cccc(NS(C)(=O)=O)c3)ccc2c1C.O=C(O)C(F)(F)F (stereo not shown) [Example 3, N-[3-[2-[2-(2,3-dimethyl-1H-indol-6-yloxy)ethylamino]-1-hydroxyethyl]phenyl]methanesulfonamide trifluoroacetate]	8.06	100%	none of eight animals were found to be dead		
Cc1[nH]c2cc(OCCNCC(O)c3ccc(Cl)c(NS(C)(=O)=O)c3)ccc2c1C (stereo not shown) [Example 4, N-[5-[2-[2-(2,3-dimethyl-1H-indol-6-yloxy)ethylamino]-1-hydroxyethyl]-2-chlorophenyl]methanesulfonamide trifluoroacetate]	8.00	73%			
CNS(=O)(=O)c1cc(C(O)CNCCOc2ccc3c(C)c(C)[nH]c3c2)ccc1O.O=C(O)C(F)(F)F (stereo not shown) [Example 9, N-methyl-[5-[2-[2-(2,3-dimethyl-1H-indol-6-yloxy)ethylamino]-1-hydroxyethyl]-2-hydroxy]benzenesulfonamide trifluoroacetate]	7.80		none of eight animals were found to be dead	62%	
Cc1[nH]c2cc(OCCNC[C@H](O)c3ccc(Cl)c(NS(C)(=O)=O)c3)ccc2c1C.Cl [Example 10, (R)-N-[5-[2-[2-(2,3-dimethyl-1H-indol-6-yloxy)ethylamino]-1-hydroxyethyl]-2-chlorophenyl]methanesulfonamide hydrochloride]	8.35	78%	none of eight animals were found to be dead		15%
Cc1[nH]c2cc(OCCNC[C@H](O)c3cccc(NS(C)(=O)=O)c3)ccc2c1C.Cl [Example 11, (R)-N-[3-[2-[2-(2,3-dimethyl-1H-indol-6-yloxy)ethylamino]-1-hydroxyethyl]phenyl]methanesulfonamide hydrochloride]	8.32	80%			17%

More lines, main results first:

pEC50 [2]	Emax [2, 4]	Compound	Mortality [1]	Intrinsic activity* (relative activities as compared with isoproterenol) [2, 4]	Increase of thermogenesis as compared with the control group [3]
8.28	71%	CNS(=O)(=O)c1cc([C@@H](O)CNCCOc2ccc3c(C)c(C)[nH]c3c2)ccc1O [Example 12, N-methyl-(R)-[5-[2-[2-(2,3-dimethyl-1H-indol-6-yloxy)ethylamino]-1-hydroxyethyl]-2-hydroxy]benzenesulfonamide hydrochloride]			
7.85	96%	Cc1c(-c2ccccc2)[nH]c2cc(OCCNC[C@H](O)c3cccc(NS(C)(=O)=O)c3)ccc12.Cl [Example 13, (R)-N-[3-[2-[2-(3-methyl-2-phenyl-1H-indol-6-yloxy)ethylamino]-1-hydroxyethyl]phenyl]methanesulfonamide hydrochloride]			15%
8.36	94%	Cc1c(-c2ccccc2)[nH]c2cc(OCCNC[C@H](O)c3ccc(Cl)c(NS(C)(=O)=O)c3)ccc12 [Example 17, (R)-N-[5-[2-[2-(3-methyl-2-phenyl-1H-indol-6-yloxy)ethylamino]-1-hydroxyethyl]-2-chlorophenyl]methanesulfonamide hydrochloride]			
